The source of these data is ChEMBL document CHEMBL1141930, “N-methylsansalvamide a peptide analogues. Potent new antitumor agents” (J Med Chem, 2005).

Converted amounts (≈) assume the structure as drawn. The source made the active and inactive calls. No cut-off for these calls is given here. Where a SMILES comes first, the peptide text is derived from it. [ ]: non-standard residue; d: D form. NMePhe(4-Br) = CN[C@@H](Cc1ccc(Br)cc1)C(=O)O; Phe(4-Br) = N[C@@H](Cc1ccc(Br)cc1)C(=O)O; NMeF = CN[C@@H](Cc1ccccc1)C(=O)O; Hica(2S) = CC(C)C[C@H](O)C(=O)O; NMeL = CN[C@@H](CC(C)C)C(=O)O; NMeV = CN[C@H](C(=O)O)C(C)C

Assay [1] concerns Cancer cell lines. The assay is described as follows: Inhibitory activity against S2-013 human pancreatic cancer cells; demonstarted good activity. Format: functional, cell-based.
For assay [2], the system named is Cancer cell lines. Briefly: Concentration at which the compound exibit more potency agains AsPC-1 human pancreatic cancer cells. It counts as functional, cell-based.
Assay [3] concerns WM-115. Briefly: Concentration at which the compound exibit good activity WM-115 human melanoma cells. Format: functional, cell-based.
Assay [4] deals with PC-3. Briefly: Concentration at which the compound exibit more potency against PC-3 human prostate cancer cells. Format: functional, cell-based.
In assay [5] the test system is MDA-MB-231. Briefly: Concentration at which the compound exibit more potency against MDA-MB-231 human […] cancer cells. Format: functional, cell-based.
Assay [6] has as its system MDA-MB-231. Briefly: Effect of N-methylation in MDA-MB-231 human […] cancer cells; exibit less potency. Format: functional, cell-based.
Assay [7] relates to PC-3. Briefly: Effect of N-methylation in PC-3 human prostate cancer cells. It counts as functional, cell-based.
A short description of assay [8]: Mean inhibitory concentration against cancer cell lines. It counts as functional, cell-based, Homo sapiens.
Assay [9] has as its system MDA-MB-231. The assay is described as follows: Effect of N-methylation in MDA-MB-231 human […] cancer cells; exibit high potency. It counts as functional, cell-based.
The subject of assay [10] is PC-3. The assay is described as follows: Effect of N-methylation in PC-3 human prostate cancer cells; exhibited more potency. It counts as functional, cell-based.
The test system of assay [11] is MDA-MB-231. The assay is described as follows: Inhibitory activity against MDA-MB-231 cells; demonstarted high activity. It counts as functional, cell-based. The following applies: Homo sapiens.
Assay [12] deals with Cancer cell lines. The assay is described as follows: Inhibitory activity against AsPC-1 human pancreatic cancer cells; demonstarted good activity. Format: functional, cell-based.
Assay [13] deals with MDA-MB-231. The assay is described as follows: Inhibitory activity against MDA-MB-231 human […] cancer cells; demonstarted good activity. Format: functional, cell-based.
Assay [14] deals with PC-3. The assay is described as follows: Inhibitory activity against PC-3 human prostate cancer cells; demonstarted good activity. It counts as functional, cell-based.
In assay [15] the test system is MDA-MB-231. Briefly: Inhibitory activity against MDA-MB-231 cells; exhibited moderate activity. It counts as functional, cell-based. The following applies: Homo sapiens.
The test system of assay [16] is WM-115. Briefly: Potency against human WM-115 cells; exhibited average potency. It counts as functional, cell-based.
For assay [17], the system named is PC-3. The assay is described as follows: Effect of N-methylation in PC-3 human prostate cancer cells; exhibited lowest activity. Format: functional, cell-based.
The subject of assay [18] is PC-3. Briefly: Effective concentration against PC-3 human prostate cancer cells. Format: functional, cell-based.
Assay [19] deals with Cancer cell lines. Briefly: Potency exhibited by the compound against well-differentiated S2-013 human pancreatic cancer cell line; much more potent. Format: functional, cell-based.

Regarding `CC(C)C[C@@H]1NC(=O)[C@H](Cc2ccc(Br)cc2)NC(=O)[C@H](CC(C)C)N(C)C(=O)[C@H](C(C)C)NC(=O)[C@H](CC(C)C)NC1=O` (cyclo([Phe(4-Br)]LLV[NMeL])), the result in assay [1] was Active. The Concentration in assay [2], in [3], in [4] and in assay [5] was 10 µM in each case.
On to `CC(C)C[C@@H]1NC(=O)[C@H](C(C)C)NC(=O)[C@H](CC(C)C)NC(=O)[C@H](CC(C)C)N(C)C(=O)[C@H](Cc2ccccc2)NC1=O` (cyclo(F[NMeL]LVL)), for which the values for the Activity entry in assay [6] and in [7] were “Potent” and “Not Very Active”, respectively.
For `CC(C)C[C@@H]1NC(=O)[C@H](C(C)C)NC(=O)[C@H](CC(C)C)OC(=O)[C@H](CC(C)C)NC(=O)[C@H](Cc2ccccc2)NC1=O` (cyclo(FL[Hica(2S)]VL)), in assay [8], the IC50 (in general, the concentration at which inhibition is half-maximal) was 27.4 µg/mL (≈ 46.7 µM).
Consider `CC(C)C[C@@H]1NC(=O)[C@H](Cc2ccc(Br)cc2)NC(=O)[C@H](CC(C)C)NC(=O)[C@H](C(C)C)NC(=O)[C@H](CC(C)C)NC1=O` (cyclo([Phe(4-Br)]LLVL)), for which the Activity entry in assay [9] is “Potent”; in assay [10] it was “More potent”.
As for `CC(C)C[C@@H]1NC(=O)[C@H](C(C)C)NC(=O)[C@H](CC(C)C)N(C)C(=O)[C@H](CC(C)C)NC(=O)[C@H](Cc2ccc(Br)cc2)NC1=O` (cyclo([Phe(4-Br)]L[NMeL]VL)), the Activity entry is “Potent” in assay [6] and “Not Very Active” in assay [7]. For the same compound, the outcome in assay [11] was Active.
With `CC(C)C[C@@H]1NC(=O)[C@H](CC(C)C)NC(=O)[C@H](Cc2ccc(Br)cc2)N(C)C(=O)[C@H](CC(C)C)NC(=O)[C@H](C(C)C)NC1=O` (cyclo([NMePhe(4-Br)]LLVL)), the outcome in assay [1], in assay [12], in [13] and in [14] was Active. In assay [3], this compound showed a Concentration of 10 µM.
`CC(C)C[C@@H]1NC(=O)[C@H](Cc2ccccc2)NC(=O)[C@H](CC(C)C)NC(=O)[C@H](C(C)C)N(C)C(=O)[C@H](CC(C)C)NC1=O` (cyclo(FLL[NMeV]L)): in assay [15], the outcome was Active.
On the same count and under the same terms, as for `CC(C)C[C@@H]1NC(=O)[C@H](Cc2ccccc2)NC(=O)[C@H](CC(C)C)N(C)C(=O)[C@H](C(C)C)NC(=O)[C@H](CC(C)C)NC1=O` (cyclo(FLLV[NMeL])), the entry is “Active”.
The same measure, in the same setting: as for `CC(C)C[C@@H]1NC(=O)[C@H](Cc2ccc(Br)cc2)NC(=O)[C@H](CC(C)C)NC(=O)[C@H](C(C)C)N(C)C(=O)[C@H](CC(C)C)NC1=O` (cyclo([Phe(4-Br)]LL[NMeV]L)), the entry is “Active”.
Consider `CC(C)C[C@@H]1NC(=O)[C@H](C(C)C)NC(=O)[C@H](CC(C)C)N(C)C(=O)[C@H](CC(C)C)NC(=O)[C@H](Cc2ccccc2)NC1=O` (cyclo(FL[NMeL]VL)), for which the Activity entry in [6] is “Potent”.
On to `CC(C)C[C@@H]1NC(=O)[C@H](Cc2ccccc2)NC(=O)[C@H](CC(C)C)NC(=O)[C@H](C(C)C)NC(=O)[C@H](CC(C)C)NC1=O` (cyclo(FLLVL)), for which the Activity entry in [6] is “Potent”; in assay [17] it was “Not Very Active”. In addition, in assay [16], the outcome was Active.
With `CC(C)C[C@@H]1NC(=O)[C@H](CC(C)C)NC(=O)[C@H](Cc2ccccc2)N(C)C(=O)[C@H](CC(C)C)NC(=O)[C@H](C(C)C)NC1=O` (cyclo([NMeF]LLVL)), the figures for the Activity entry in assay [6] and in [7] were “Potent” and “Not Very Active”, respectively.
On to `CC(C)C[C@@H]1NC(=O)[C@H](C(C)C)NC(=O)[C@H](CC(C)C)NC(=O)[C@H](CC(C)C)N(C)C(=O)[C@H](Cc2ccc(Br)cc2)NC1=O` (cyclo([Phe(4-Br)][NMeL]LVL)), for which the result in [12] and in assay [19] was Active. For the same compound, the EC50 (in general, the midpoint of the concentration-response curve) in [18] is 7.5 µM. In addition, the Concentration in [4] and in [5] was 10 µM each time.
